Patent publication US10087469B2, “Method of producing sugar solution, sugar solution, and method of producing ethanol” (Toray Industries, Inc., priority 2012, dated 2018)

System: Pichia stipitis NBRC1687 strain
Assay: Growth test of Pichia stipitis using model sugar solution (YPDX medium with additive)
Format: cell-based
Set-up: Xylose concentration in the medium / Glucose concentration in the medium: unit not given here
Settings: for growth inhibitory effect compared with coumaric acid: particularly in consumption rate of glucose
Experimental: In main culture of “A. Growth Test of Pichia Stipitis using Model Sugar solution” described below, any one of coumaramide, coumaric acid, and ferulamide was added in a concentration of 2 ppm to 200 ppm as an additive in a medium, and the medium was subjected to a growth test. As a positive control, a YPDX medium free of an additive was subjected to the same test.
A. Growth Test of Pichia Stipitis Using Model Sugar Solution
A Pichia stipitis NBRC1687 strain was statically cultured at 25° C. in a YPDX agar medium produced by adding 2% agar to a YPDX medium shown in Table 3 below (prepreculture). One of colonies formed on the agar medium was inoculated into 10 mL of the YPDX medium with a platinum loop, and cultured at 25° C. and 120 spm in a test tube with a volume of 20 mL for 48 hours under shaking (preculture). One mL of medium after the preculture was added to 9 mL of YPDX medium, and culture was further continued at 25° C. and 60 spm in a test tube with a volume of 20 mL (main culture). 0, 24, and 48 hours after initiation of the culture, sampling was performed, the monosaccharide concentration and the absorbance (OD660) were measured. Thus, growth of fungus bodies was observed.

[1] = additive 2 ppm, 0 h of main culture
[2] = additive 2 ppm, 24 h of main culture
[3] = additive 2 ppm, 48 h of main culture
[4] = additive 20 ppm, 0 h of main culture
[5] = additive 20 ppm, 24 h of main culture
[6] = additive 20 ppm, 48 h of main culture
[7] = additive 200 ppm, 0 h of main culture
[8] = additive 200 ppm, 24 h of main culture
[9] = additive 200 ppm, 48 h of main culture

Row | SMILES | fermentation inhibitor in the culture of Pichia stipitis | Glucose concentration in the medium [1] | Xylose concentration in the medium [1] | Glucose concentration in the medium [2] | Xylose concentration in the medium [2] | Glucose concentration in the medium [3] | Xylose concentration in the medium [3] | Glucose concentration in the medium [4] | Xylose concentration in the medium [4] | Glucose concentration in the medium [5] | Xylose concentration in the medium [5] | Glucose concentration in the medium [6] | Xylose concentration in the medium [6] | Glucose concentration in the medium [7] | Xylose concentration in the medium [7] | Glucose concentration in the medium [8] | Xylose concentration in the medium [8] | Glucose concentration in the medium [9] | Xylose concentration in the medium [9] | growth inhibitory effect compared with coumaric acid
1 | NC(=O)/C=C/c1ccc(O)cc1 [Coumaramide, coumaramide] | fermentation inhibitors | 10 | 10 | 2.3 | 2.3 | 0 | 0 | 10 | 10 | 4.82 | 9.7 | 0 | 0 | 10 | 10 | 5.9 | 9.5 | 0 | 0.4 | superior to coumaric acid in growth inhibitory
2 | O=C(O)/C=C/c1ccc(O)cc1 [Coumaric Acid, coumaric acid] | – | 10 | 10 | 2.6 | 2.6 | 0 | 0 | 10 | 10 | 2.6 | 8.7 | 0 | 0 | 10 | 10 | 3.6 | 9.2 | 0 | 0 | –
3 | COc1cc(/C=C/C(N)=O)ccc1O [Ferulamide, ferulamide] | fermentation inhibitors | 10 | 10 | 2.3 | 2.3 | 0 | 0 | 10 | 10 | 6.6 | 9.3 | 0 | 0 | 10 | 10 | 6.7 | 9.7 | 0 | 5.2 | superior to coumaric acid in growth inhibitory
